Results reported in EP3478687B1 (Daewoong Pharmaceutical Co., Ltd., priority 2016, dated 2018).

How the values were obtained:
[1] = target: T1, Recombinant purified human BTK (Homo sapiens, UniProt Q06187); assay: BTK kinase inhibitory activity, ADP-Glo kinase assay (Promega V9071); assay type: biochemical; conditions: ATP 10 uM, 8 ng BTK per reaction, 1 hour 30 °C, chemiluminescence
T1 construct: purchased Promega V9071
Summary of the method: (§1)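 Recombinant human kinases in Tris pH 7.5 buffer with MgCl2, BSA and DTT (MnCl2 added for BTK), 4 ng JAK3 or 8 ng BTK per reaction. Poly(Glu4,Tyr1) 0.2 µg/µL with 5 µM (JAK3) or 10 µM (BTK) ATP, 1% DMSO, 1 h at 30 °C. ADP-Glo luminescence used to derive IC50.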

[2] = target: T2, Recombinant purified human JAK3 (Homo sapiens, UniProt P52333); assay: JAK3 kinase inhibitory activity, ADP-Glo kinase assay (Promega V9441); assay type: biochemical; conditions: ATP 5 uM, 4 ng JAK3 per reaction, 1 hour 30 °C, chemiluminescence
T2 construct: purchased Promega V9441
T2 sequence (P52333 1-1124): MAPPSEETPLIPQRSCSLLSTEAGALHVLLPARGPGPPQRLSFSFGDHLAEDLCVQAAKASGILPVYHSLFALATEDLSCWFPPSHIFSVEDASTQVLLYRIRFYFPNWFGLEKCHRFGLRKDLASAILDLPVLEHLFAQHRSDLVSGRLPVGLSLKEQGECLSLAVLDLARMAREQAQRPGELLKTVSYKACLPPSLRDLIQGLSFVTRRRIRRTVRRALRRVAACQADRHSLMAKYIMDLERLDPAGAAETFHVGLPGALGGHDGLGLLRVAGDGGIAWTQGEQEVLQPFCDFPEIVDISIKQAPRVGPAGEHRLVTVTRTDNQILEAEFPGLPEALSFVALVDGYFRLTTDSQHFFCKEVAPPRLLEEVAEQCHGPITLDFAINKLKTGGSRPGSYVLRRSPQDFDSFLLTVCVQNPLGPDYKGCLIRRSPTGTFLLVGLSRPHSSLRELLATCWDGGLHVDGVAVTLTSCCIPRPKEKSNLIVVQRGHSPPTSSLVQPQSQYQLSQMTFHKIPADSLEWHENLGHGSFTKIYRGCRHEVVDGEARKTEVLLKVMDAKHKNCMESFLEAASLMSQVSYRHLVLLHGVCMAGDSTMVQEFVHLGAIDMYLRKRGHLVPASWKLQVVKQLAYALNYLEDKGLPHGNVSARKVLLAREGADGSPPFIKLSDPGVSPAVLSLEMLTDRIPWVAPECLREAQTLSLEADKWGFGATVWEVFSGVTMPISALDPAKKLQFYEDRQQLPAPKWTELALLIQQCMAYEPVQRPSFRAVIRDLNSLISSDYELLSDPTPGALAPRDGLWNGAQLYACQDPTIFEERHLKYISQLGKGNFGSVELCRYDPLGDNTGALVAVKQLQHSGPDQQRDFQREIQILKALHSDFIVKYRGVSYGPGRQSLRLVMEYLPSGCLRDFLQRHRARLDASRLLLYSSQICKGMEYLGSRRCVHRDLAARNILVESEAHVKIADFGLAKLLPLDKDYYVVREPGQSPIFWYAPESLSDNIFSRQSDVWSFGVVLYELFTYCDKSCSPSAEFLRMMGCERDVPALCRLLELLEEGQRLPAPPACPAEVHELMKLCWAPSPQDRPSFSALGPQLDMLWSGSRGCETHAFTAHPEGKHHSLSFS
Summary of the method: as §1

T1 sequence (Q06187 whole entry): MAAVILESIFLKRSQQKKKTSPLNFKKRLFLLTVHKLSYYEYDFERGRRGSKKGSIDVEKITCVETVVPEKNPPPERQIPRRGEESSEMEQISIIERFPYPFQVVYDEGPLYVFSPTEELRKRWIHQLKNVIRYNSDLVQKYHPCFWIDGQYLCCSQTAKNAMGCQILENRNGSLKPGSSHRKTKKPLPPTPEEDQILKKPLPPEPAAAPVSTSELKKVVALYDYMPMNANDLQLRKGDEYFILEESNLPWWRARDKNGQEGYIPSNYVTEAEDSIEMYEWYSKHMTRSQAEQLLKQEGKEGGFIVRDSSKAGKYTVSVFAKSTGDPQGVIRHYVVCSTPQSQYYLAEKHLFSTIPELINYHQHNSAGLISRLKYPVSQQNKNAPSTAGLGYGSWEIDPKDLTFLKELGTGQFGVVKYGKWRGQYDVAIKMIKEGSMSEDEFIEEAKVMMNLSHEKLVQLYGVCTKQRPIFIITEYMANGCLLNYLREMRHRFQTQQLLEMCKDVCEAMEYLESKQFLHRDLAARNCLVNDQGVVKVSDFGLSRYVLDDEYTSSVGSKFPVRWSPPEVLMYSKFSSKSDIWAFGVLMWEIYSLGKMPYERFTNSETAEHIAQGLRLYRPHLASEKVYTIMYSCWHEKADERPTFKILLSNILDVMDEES

Row | SMILES | IC50 [1] [nM] | IC50 [2] [nM]
1 | C=CC(=O)N1CCC[C@@H](Nc2nc(Nc3cnn(CC(F)F)c3)nc3[nH]nc(C)c23)C1 [Example 184, (R)-1-(3-((6-((1-(2,2-difluoroethyl)-1H-pyrazol-4-yl)amino)-3-methyl-1H-pyrazolo[3,4-d]pyrimidin-4-yl)amino)piperidin-1-yl)prop-2-en-1-one] | 1.4 | 4.4
2 | C=CC(=O)N1CCC[C@@H](Nc2nc(Nc3cnn(CC)c3)nc3[nH]nc(C)c23)C1 [Example 185, (R)-1-(3-((6-((1-ethyl-1H-pyrazol-4-yl)amino)-3-methyl-1H-pyrazolo [3,4-d]pyrimidin-4-yl)amino)piperidin-1-yl)prop-2-en-1-one] | 2.1 | 15.1
3 | C=CC(=O)N1CCC[C@@H](Nc2nc(Nc3cnn(CC(C)C)c3)nc3[nH]nc(C)c23)C1 [Example 186, (R)-1-(3-((6-((1-isobutyl-1H-pyrazol-4-yl)amino)-3-methyl-1H-pyrazolo [3,4-d]pyrimidin-4-yl)amino)piperidin-1-yl)prop-2-en-1-one] | 1.6 | 18
4 | C=CC(=O)N1CCC[C@@H](Nc2nc(Nc3cnn(C(C)(C)C)c3)nc3[nH]nc(C)c23)C1 [Example 187, (R)-1-(3-((6-((1-(tert-butyl)-1H-pyrazol-4-yl)amino)-3-methyl-1H-pyrazolo [3,4-d]pyrimidin-4-yl)amino)piperidin-1-yl)prop-2-en-1-one] | 1.8 | 14.6
5 | C=CC(=O)N1CCC[C@@H](Nc2nc(Nc3cnn(C4CC4)c3)nc3[nH]nc(C)c23)C1 [Example 188, (R)-1-(3-((6-((1-cyclopropyl-1H-pyrazol-4-yl)amino)-3-methyl-1H-pyrazolo[3,4-d]pyrimidin-4-yl)amino)piperidin-1-yl)prop-2-en-1-one] | 2.9 | 23.5
6 | C=CC(=O)N1CC[C@@H](F)[C@@H](Nc2nc(Nc3cnn(CC)c3)nc3[nH]nc(Cl)c23)C1 [Example 193, 1-((3S,4R)-3-((3-chloro-6-((1-ethyl-1H-pyrazol-4-yl)amino)-1H-pyrazolo[3,4-d]pyrimidin-4-yl)amino)-4-fluoropiperidin-1-yl)prop-2-en-1-one] | 0.9 | 0.5

These reach a lower IC50 [1]. Values come first.

Row | IC50 [1] [nM] | IC50 [2] [nM] | SMILES
7 | 0.721 | 3.4 | C=CC(=O)N1CCC[C@@H](Nc2nc(Nc3cnn(CC)c3)nc3[nH]nc(SC)c23)C1 [Example 189, (R)-1-(3-((6-((1-ethyl-1H-pyrazol-4-yl)amino)-3-(methylthio)-1H-pyrazolo [3,4-d]pyrimidin-4-yl)amino)piperidin-1-yl)prop-2-en-1-one]
8 | 0.76 | 2 | C=CC(=O)N1CCC[C@@H](Nc2nc(Nc3cnn(CC(F)F)c3)nc3[nH]nc(SC)c23)C1 [Example 190, (R)-1-(3-((6-((1-(2,2-difluoroethyl)-1H-pyrazol-4-yl)amino)-3-(methylthio)-1H-pyrazolo[3,4-d]pyrimidin-4-yl)amino)piperidin-1-yl)prop-2-en-1-one]
9 | 0.76 | 4.2 | C=CC(=O)N1CCC[C@@H](Nc2nc(Nc3cnn(C)c3)nc3[nH]nc(SC)c23)C1 [Example 191, (R)-1-(3-((6-((1-methyl-1H-pyrazol-4-yl)amino)-3-(methylthio)-1H-pyrazolo [3,4-d]pyrimidin-4-yl)amino)piperidin-1-yl)prop-2-en-1-one]
10 | 0.726 | 3 | C=CC(=O)N1CCC[C@@H](Nc2nc(Nc3cnn(C(C)(C)C)c3)nc3[nH]nc(SC)c23)C1 [Example 192, (R)-1-(3-((6-((1-(tert-butyl)-1H-pyrazol-4-yl)amino)-3-(methylthio)-1H-pyrazolo [3,4-d]pyrimidin-4-yl)amino)piperidin-1-yl)prop-2-en-1-one]
